Measurements reported in PMC9059125 (Journal of Medicinal Chemistry, 2022).
Where two headings read alike, the source gives them in different places.

What was measured:
[1] = simulated gi fluid, pH 6.8
[2] = target: T1, human oxytocin receptor (OTR) (Homo sapiens, UniProt P30559); settings: cited from earlier work
T1 construct: NIMH PDSP (data provider)
T1 sequence (P30559 1-389): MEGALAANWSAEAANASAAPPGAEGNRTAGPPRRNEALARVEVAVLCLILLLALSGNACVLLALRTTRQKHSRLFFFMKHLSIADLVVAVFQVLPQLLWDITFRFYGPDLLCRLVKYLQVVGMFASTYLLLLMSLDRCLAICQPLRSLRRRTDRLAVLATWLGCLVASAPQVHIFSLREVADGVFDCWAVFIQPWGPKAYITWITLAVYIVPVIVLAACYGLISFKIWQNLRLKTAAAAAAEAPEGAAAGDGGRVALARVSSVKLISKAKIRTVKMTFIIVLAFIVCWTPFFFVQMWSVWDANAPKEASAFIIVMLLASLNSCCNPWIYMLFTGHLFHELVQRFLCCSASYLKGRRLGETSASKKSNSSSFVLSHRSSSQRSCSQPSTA

[3] = simulated gi fluid, pH 1.2
OTR = settings: cited from earlier work
in vitro [4] = settings: pig, simulated gi fluid, pH 1.2, t1/2 SGF
in vitro [5] = settings: pig, simulated gi fluid, pH 6.8
[6] = target: T1, human oxytocin receptor (OTR); settings: cited from earlier work; remark: listed apart in the source

For `CC[C@H](C)[C@@H]1NC(=O)[C@H](Cc2ccc(O)cc2)NC(=O)[C@@H](N)CSSC[C@@H](C(=O)N2CCC[C@H]2C(=O)N[C@@H](CC(C)C)C(=O)N(C)CC(N)=O)NC(=O)[C@H](CC(N)=O)NC(=O)[C@H](CCC(N)=O)NC1=O` [(Nα-Me)G^9OT], which “t1/2 SIF” value ([1]; pig) is on record?
The value was 2.9 ± 0.1 h.

What about the “reduced potency compared to native OT” value [2] of the same compound?
The value was ~10 fold.

For `CC[C@H](C)[C@@H]1NC(=O)[C@@H]2CCCN2C(=O)[C@H](Cc2c[nH]c3ccccc23)NC(=O)[C@H](CO)NC(=O)[C@@H]2CSSC[C@@H]3NC(=O)[C@H]([C@@H](C)O)NC(=O)[C@H](CCC(=O)O)NC(=O)CNC(=O)[C@@H]4CSSC[C@H](NC(=O)CNC(=O)[C@H](CCC(N)=O)NC(=O)[C@H]([C@@H](C)O)NC(=O)[C@H](Cc5ccc(O)cc5)NC(=O)[C@H](CSSC[C@H](NC1=O)C(=O)N[C@@H](CCCCN)C(=O)N[C@@H](CCCNC(=N)N)C(=O)N[C@@H](CC(N)=O)C(=O)NCC(=O)N[C@@H](CC(C)C)C(=O)N1CCC[C@H]1C(=O)N[C@@H](C(C)C)C(=O)N4)NC(=O)[C@H]([C@@H](C)O)NC(=O)CNC(=O)[C@H](CC(C)C)NC(=O)[C@H]([C@@H](C)O)NC3=O)C(=O)N[C@@H]([C@@H](C)O)C(=O)N2` [Kalata B7], which “t1/2 SGF” value [3] is on record?
Its value is >24 h.

And the “t1/2 SIF” value [1]?
Its value is >24 h.

And the “agonistic activity at the OTR (in words)” value (OTR)?
The value was “weak inherent agonistic activity”.

What does the source list for `CC[C@H](C)[C@@H]1NC(=O)[C@@H]2CCCN2C(=O)[C@@H]2CCCN2C(=O)[C@H]([C@@H](C)CC)NC(=O)[C@H](CO)NC(=O)[C@H](CCCCN)NC(=O)[C@H]([C@@H](C)O)NC(=O)[C@@H]2CSSC[C@H](NC1=O)C(=O)N[C@@H](Cc1ccccc1)C(=O)N1CCC[C@H]1C(=O)N[C@@H](CC(=O)O)C(=O)NCC(=O)N[C@@H](CCCNC(=N)N)C(=O)N2` [SFTI-1]?
half-life (in vitro [4]): > 24 h; half-life (in vitro [5]): 16.3 ± 2.7 h

With `CC[C@@H](C)[C@H]1NC(=O)[C@@H](CCC(N)=O)NC(=O)[C@@H](CC(N)=O)NC(=O)[C@H](NC(=O)[C@H]2CCCN2C(=O)[C@@H](CC(C)C)NC(=O)CN)CSSC[C@H](C(N)=O)NC(=O)[C@@H](Cc2ccc(O)cc2)NC1=O` [all-D-retroinverse-OT] as the compound, how does the “activity at the OTR (in words)” value [6] read?
The value was “inactive”.

And the half-life (in vitro [5])?
The half-life was > 24 h.
